Measured values taken from article PMC6413085, “A Validated HPLC-MS/MS Assay for 14-O-[(4,6-Diaminopyrimidine-2-yl)thioacetyl] Mutilin in Biological Samples and Its Pharmacokinetic, Distribution and Excretion via Urine and Feces in Rats” (Molecules, 2019).

Assay: Stability of DPTM in plasma, tissue homogenates, urine and feces (QC samples)
Type: physicochemical, rat
Experimental: Stability of DPTM and IS was examined by comparing the analytes’ concentrations in freshly prepared samples with those of samples maintained under different conditions, including the 24 h storage at room temperature, three freeze and thaw cycles, and storage at −70 °C for 4 weeks, respectively. Analyzing three levels of QC samples were used to assess the stability (accuracy and precision) with six replicates.
For the construction of calibration curves, 20 μL of each corresponding standard working solution (0.05, 0.2, 0.5, 1, 2, 5, 10, 20 and 40 μg/mL) was evaporated to dryness by nitrogen at 40 °C. The calibration standards (5, 20, 50, 100, 200, 500, 1000, 2000 and 4000 ng/mL) were prepared by adding 200 μL of blank plasma, various tissue homogenates (including heart, liver, spleen, lung, kidney, large intestine, small intestine, ileum, cecum, bladder, brain, jejunum and colon) or urine and feces to the residue, respectively. Quality control (QC) samples (10, 200 and 3000 ng/mL) were obtained by the same way as the calibration standards. All solutions were stored at −70 °C before use for no longer than 4 weeks.

C=CC1(C)CC(OC(=O)CSc2nc(N)cc(N)n2)C2(C)C(C)CCC3(CCC(=O)C32)C(C)C1O (stereo not drawn) [DPTM, 14-O-[(4,6-Diaminopyrimidine-2-yl)thioacetyl] mutilin]
Stability RE (Jejunum, 200 ng/mL, Long-term (−70 °C, 4 Weeks)): 7.3% | Stability RE (Jejunum, 200 ng/mL, Short-term (25 °C, 24 h)): 7.5% | Stability RE (Jejunum, 3000 ng/mL, Freeze-thaw Cycles): −5.4% | Stability RE (Jejunum, 3000 ng/mL, Long-term (−70 °C, 4 Weeks)): −5.6% | Stability RE (Jejunum, 3000 ng/mL, Short-term (25 °C, 24 h)): −5.3% | Stability RE (Kidney, 10 ng/mL, Freeze-thaw Cycles): 3.7% | Stability RE (Kidney, 10 ng/mL, Long-term (−70 °C, 4 Weeks)): 3.5% | Stability RE (Kidney, 10 ng/mL, Short-term (25 °C, 24 h)): 3.4% | Stability RE (Kidney, 200 ng/mL, Freeze-thaw Cycles): 2.3% | Stability RE (Kidney, 200 ng/mL, Long-term (−70 °C, 4 Weeks)): 1.9% | Stability RE (Kidney, 200 ng/mL, Short-term (25 °C, 24 h)): 0.9% | Stability RE (Kidney, 3000 ng/mL, Freeze-thaw Cycles): 10.1% | Stability RE (Kidney, 3000 ng/mL, Long-term (−70 °C, 4 Weeks)): 9.9% | Stability RE (Kidney, 3000 ng/mL, Short-term (25 °C, 24 h)): 3.2% | Stability RE (Large intestine, 10 ng/mL, Freeze-thaw Cycles): 6.3% | Stability RE (Large intestine, 10 ng/mL, Long-term (−70 °C, 4 Weeks)): 6.9% | Stability RE (Large intestine, 10 ng/mL, Short-term (25 °C, 24 h)): 1.9% | Stability RE (Large intestine, 200 ng/mL, Freeze-thaw Cycles): 2.4% | Stability RE (Large intestine, 200 ng/mL, Long-term (−70 °C, 4 Weeks)): 2.2% | Stability RE (Large intestine, 200 ng/mL, Short-term (25 °C, 24 h)): 5.7% | Stability RE (Large intestine, 3000 ng/mL, Freeze-thaw Cycles): 3.1% | Stability RE (Large intestine, 3000 ng/mL, Long-term (−70 °C, 4 Weeks)): 3.5% | Stability RE (Large intestine, 3000 ng/mL, Short-term (25 °C, 24 h)): −0.9% | Stability RE (Liver, 10 ng/mL, Freeze-thaw Cycles): 3.3% | Stability RE (Liver, 10 ng/mL, Long-term (−70 °C, 4 Weeks)): 3.4% | Stability RE (Liver, 10 ng/mL, Short-term (25 °C, 24 h)): 2.9% | Stability RE (Liver, 200 ng/mL, Freeze-thaw Cycles): 3.4% | Stability RE (Liver, 200 ng/mL, Long-term (−70 °C, 4 Weeks)): 3.6% | Stability RE (Liver, 200 ng/mL, Short-term (25 °C, 24 h)): 3.3% | Stability RE (Liver, 3000 ng/mL, Freeze-thaw Cycles): 1.9% | Stability RE (Liver, 3000 ng/mL, Long-term (−70 °C, 4 Weeks)): 2.1% | Stability RE (Liver, 3000 ng/mL, Short-term (25 °C, 24 h)): 6.1% | Stability RE (Lung, 10 ng/mL, Freeze-thaw Cycles): 2.5% | Stability RE (Lung, 10 ng/mL, Long-term (−70 °C, 4 Weeks)): 2.9% | Stability RE (Lung, 10 ng/mL, Short-term (25 °C, 24 h)): 3.3% | Stability RE (Lung, 200 ng/mL, Freeze-thaw Cycles): 3.1% | Stability RE (Lung, 200 ng/mL, Long-term (−70 °C, 4 Weeks)): 3.5% | Stability RE (Lung, 200 ng/mL, Short-term (25 °C, 24 h)): 2.1% | Stability RE (Lung, 3000 ng/mL, Freeze-thaw Cycles): 7.6% | Stability RE (Lung, 3000 ng/mL, Long-term (−70 °C, 4 Weeks)): 7.5% | Stability RE (Lung, 3000 ng/mL, Short-term (25 °C, 24 h)): 1.3% | Stability RE (Small intestine, 10 ng/mL, Freeze-thaw Cycles): 4.9% | Stability RE (Small intestine, 10 ng/mL, Long-term (−70 °C, 4 Weeks)): 4.6% | Stability RE (Small intestine, 10 ng/mL, Short-term (25 °C, 24 h)): 1.3% | Stability RE (Small intestine, 200 ng/mL, Freeze-thaw Cycles): 3.2% | Stability RE (Small intestine, 200 ng/mL, Long-term (−70 °C, 4 Weeks)): 3.6% | Stability RE (Small intestine, 200 ng/mL, Short-term (25 °C, 24 h)): 3.7% | Stability RE (Small intestine, 3000 ng/mL, Freeze-thaw Cycles): 3.9% | Stability RE (Small intestine, 3000 ng/mL, Long-term (−70 °C, 4 Weeks)): 3.8% | Stability RE (Small intestine, 3000 ng/mL, Short-term (25 °C, 24 h)): 5.3% | Stability RE (Spleen, 10 ng/mL, Freeze-thaw Cycles): 3.6% | Stability RE (Spleen, 10 ng/mL, Long-term (−70 °C, 4 Weeks)): 3.3% | Stability RE (Spleen, 10 ng/mL, Short-term (25 °C, 24 h)): 3.7% | Stability RE (Spleen, 200 ng/mL, Freeze-thaw Cycles): 7.9% | Stability RE (Spleen, 200 ng/mL, Long-term (−70 °C, 4 Weeks)): 7.1% | Stability RE (Spleen, 200 ng/mL, Short-term (25 °C, 24 h)): 7.2% | Stability RE (Spleen, 3000 ng/mL, Freeze-thaw Cycles): 5.6% | Stability RE (Spleen, 3000 ng/mL, Long-term (−70 °C, 4 Weeks)): 5.7% | Stability RE (Spleen, 3000 ng/mL, Short-term (25 °C, 24 h)): 5.9% | results of stability experiments (% RE and % RSD) (plasma, tissue homogenates, urine and feces, 24 h at room temperature, three freeze and thaw cycles, −70 °C for 4 weeks): ≤ 15%
